Results: PMC8037569, “Neuroprotective Effect of Aurantio-Obtusin, a Putative Vasopressin V1A Receptor Antagonist, on Transient Forebrain Ischemia Mice Model” (International Journal of Molecular Sciences, 2021)
Read-outs that look alike come from different tables or passages of the source.

Key:
hV1AR = target: T1, hV1AR (Homo sapiens, UniProt P37288); experiment: GPCR functional assay: intracellular Ca2+ mobilization in transfected CHO cells; assay type: cell-based; conditions: for % Stimulation (agonist effect) of control agonist response, V1A (h): control response to 1 μM AVP
T1 construct: host or cells: CHO
T1 sequence (P37288 whole entry): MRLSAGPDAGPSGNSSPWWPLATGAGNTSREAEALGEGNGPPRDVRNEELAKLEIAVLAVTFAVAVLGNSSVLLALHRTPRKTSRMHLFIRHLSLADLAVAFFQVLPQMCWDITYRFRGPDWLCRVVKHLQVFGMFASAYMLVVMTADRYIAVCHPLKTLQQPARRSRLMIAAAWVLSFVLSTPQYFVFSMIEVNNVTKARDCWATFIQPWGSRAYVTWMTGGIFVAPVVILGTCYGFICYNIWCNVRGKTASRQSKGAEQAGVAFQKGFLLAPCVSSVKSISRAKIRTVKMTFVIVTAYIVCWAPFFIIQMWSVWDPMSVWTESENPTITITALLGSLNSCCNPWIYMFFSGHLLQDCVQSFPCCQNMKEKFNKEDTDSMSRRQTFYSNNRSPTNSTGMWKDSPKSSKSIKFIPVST

vasopressin receptors = test system: vasopressin receptors; parameters: method as in PMID 32280914; conditions: at the tested concentrations; cited from earlier work
dopamine receptors = test system: dopamine receptors; parameters: method as in PMID 32280914; conditions: at the tested concentrations; cited from earlier work
hD3 receptor = target: T2, hD3 receptor (Homo sapiens, UniProt P35462); experiment: GPCR functional assay: cAMP modulation by HTRF in transfected CHO cells; assay type: cell-based; conditions: for % Stimulation (agonist effect) of control agonist response, D3 (h): 100 µM test compound, control response to 300 nM dopamine; for inhibition at 100 µM: CHO, read-out: % Inhibition (antagonist effect) of control agonist response, D3 (h)
T2 construct: host or cells: CHO
T2 sequence (P35462 whole entry): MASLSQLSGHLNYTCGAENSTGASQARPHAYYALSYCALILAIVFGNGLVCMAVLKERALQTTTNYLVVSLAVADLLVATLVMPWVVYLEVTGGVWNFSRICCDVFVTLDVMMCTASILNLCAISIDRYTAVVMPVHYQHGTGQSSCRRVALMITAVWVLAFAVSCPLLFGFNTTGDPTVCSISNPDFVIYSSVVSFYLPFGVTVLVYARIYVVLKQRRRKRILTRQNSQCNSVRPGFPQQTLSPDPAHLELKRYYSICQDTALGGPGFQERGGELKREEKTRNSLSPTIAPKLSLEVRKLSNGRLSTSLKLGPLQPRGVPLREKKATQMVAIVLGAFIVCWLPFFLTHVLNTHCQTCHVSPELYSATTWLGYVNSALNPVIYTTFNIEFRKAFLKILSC

h5-HT1AR = target: T3, h5-HT1AR (Homo sapiens, UniProt P08908); experiment: GPCR functional assay: intracellular Ca2+ mobilization in Ba/F3 cells; assay type: cell-based; conditions: for % Inhibition (antagonist effect) of control agonist response, 5-HT1A (h) / % Stimulation (agonist effect) of control agonist response, 5-HT1A (h): 100 µM test compound; for % Inhibition (antagonist effect) of control agonist response, 5-HT1A (h): control response to 30 nM serotonin; for % Stimulation (agonist effect) of control agonist response, 5-HT1A (h): control response to serotonin (2.5 μM); for inhibition at 100 µM: BaF3, read-out: % Inhibition (antagonist effect) of control agonist response, 5-HT1A (h)
T3 construct: host or cells: Ba/F3 (murine pro-B)
T3 sequence (P08908 1-422): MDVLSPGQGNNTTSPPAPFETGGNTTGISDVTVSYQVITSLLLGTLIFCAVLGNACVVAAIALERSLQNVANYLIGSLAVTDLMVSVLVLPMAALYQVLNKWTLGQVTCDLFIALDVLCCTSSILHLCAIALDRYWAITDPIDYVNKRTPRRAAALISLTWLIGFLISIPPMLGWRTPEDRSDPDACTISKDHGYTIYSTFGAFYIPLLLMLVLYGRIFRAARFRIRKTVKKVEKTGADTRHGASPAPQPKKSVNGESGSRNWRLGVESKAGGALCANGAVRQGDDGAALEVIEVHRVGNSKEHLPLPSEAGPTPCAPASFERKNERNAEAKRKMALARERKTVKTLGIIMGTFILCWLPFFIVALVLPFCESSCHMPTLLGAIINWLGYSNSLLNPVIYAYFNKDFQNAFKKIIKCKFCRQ

hNK1R = target: T4, hNK1R (Homo sapiens, UniProt P25103); experiment: GPCR functional assay: intracellular Ca2+ mobilization in U373MG cells; assay type: cell-based; conditions: for % Inhibition (antagonist effect) of control agonist response, NK1 (h) / % Stimulation (agonist effect) of control agonist response, NK1 (h): 100 µM test compound; for % Inhibition (antagonist effect) of control agonist response, NK1 (h): control response to 1 nM [Sar9, Met(O2)11]-SP; for % Stimulation (agonist effect) of control agonist response, NK1 (h): control response to 30 nM [Sar9, Met(O2)11]-SP; for inhibition at 100 µM: U373 MG, read-out: % Inhibition (antagonist effect) of control agonist response, NK1 (h)
T4 construct: Human endogenous (U373MG cells); host or cells: U373MG
T4 sequence (P25103 whole entry): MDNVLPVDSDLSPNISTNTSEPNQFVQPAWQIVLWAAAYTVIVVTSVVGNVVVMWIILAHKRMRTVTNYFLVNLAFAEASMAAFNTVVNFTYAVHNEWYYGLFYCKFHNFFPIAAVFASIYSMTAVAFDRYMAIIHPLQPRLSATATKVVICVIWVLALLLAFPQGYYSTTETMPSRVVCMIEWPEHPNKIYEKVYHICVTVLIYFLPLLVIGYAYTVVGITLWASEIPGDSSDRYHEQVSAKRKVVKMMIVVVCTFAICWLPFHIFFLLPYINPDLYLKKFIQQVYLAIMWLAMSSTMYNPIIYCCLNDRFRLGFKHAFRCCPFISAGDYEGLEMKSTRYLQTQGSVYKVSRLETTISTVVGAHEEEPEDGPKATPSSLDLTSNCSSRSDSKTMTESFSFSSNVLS

[1] = target: angiotensin-converting enzyme (ACE); parameters: method as in PMID 18803227; conditions: read-out: Inhibition of ACE activity, IC50; cited from earlier work
[2] = 100 µM test compound, control response to 10 nM AVP
[3] = CHO, read-out: % Inhibition (antagonist effect) of control agonist response, V1A (h)

COc1c(O)c(C)cc2c1C(=O)c1c(O)cc(O)cc1C2=O [2-Hydroxyemodin 1-methylether]
inhibition at 12.5 µM (hV1AR; CHO, 12.5 µM, control response to 10 nM AVP, read-out: V1AR antagonist effect, % inhibition): 23.1%
inhibition at 25 µM (hV1AR; CHO, 25 µM, control response to 10 nM AVP, read-out: V1AR antagonist effect, % inhibition): 26.5%
inhibition at 50 µM (hV1AR; CHO, 50 µM, control response to 10 nM AVP, read-out: V1AR antagonist effect, % inhibition): 36.6%
inhibition at 100 µM (hV1AR; CHO, 100 µM test compound, control response to 10 nM AVP, read-out: % Inhibition (antagonist effect) of control agonist response, V1A (h) (converted)): 42.3%

Cc1cc2c(c(O)c1O)C(=O)c1c(O)cc(O)cc1C2=O [7-hydroxyemodin]
Activity on vasopressin receptors (vasopressin receptors): showed activity
Activity on dopamine receptors (dopamine receptors): showed activity

Cc1cc(=O)c2c(O)c3c(OC4OC(CO)C(O)C(O)C4O)cc(O)cc3cc2o1 (stereo not drawn) [Cassiaside]
% Stimulation (agonist effect) of control agonist response, D3 (h) (hD3 receptor): 14.75 ± 1.20%
inhibition at 100 µM (hD3 receptor): -5.05%
% Inhibition (antagonist effect) of control agonist response, 5-HT1A (h) (h5-HT1AR): negligible
% Stimulation (agonist effect) of control agonist response, 5-HT1A (h) (h5-HT1AR): 1.75 ± 0.07%
inhibition at 100 µM (h5-HT1AR): -13.4%
% Inhibition (antagonist effect) of control agonist response, NK1 (h) (hNK1R): negligible
% Stimulation (agonist effect) of control agonist response, NK1 (h) (hNK1R): −1.70 ± 0.14%
inhibition at 100 µM (hNK1R): 20.5%
% Inhibition (antagonist effect) of control agonist response, V1A (h) (hV1AR; [2]): negligible
% Stimulation (agonist effect) of control agonist response, V1A (h) (hV1AR; 100 µM test compound): 1.40 ± 2.83%
inhibition at 100 µM (hV1AR; [3]): -9.9%

FC(F)(F)c1cc(CO[C@H]2CCCN[C@H]2c2ccccc2)cc(C(F)(F)F)c1 [L 733,060, reference compound]
IC50 (hNK1R; standard antagonist, read-out: Antagonist effect IC50, NK1 (h)): 0.00058 µM

COc1cc(OC2OC(COC3OC(CO)C(O)C(O)C3O)C(O)C(O)C2O)c2c(O)c3c(=O)cc(C)oc3cc2c1 (stereo not drawn) [Rubrofusarin Gentiobioside, Rubrofusarin 6-O-β-gentiobioside]
% Stimulation (agonist effect) of control agonist response, D3 (h) (hD3 receptor): 7.05 ± 1.63%
inhibition at 100 µM (hD3 receptor): -0.05%
% Inhibition (antagonist effect) of control agonist response, 5-HT1A (h) (h5-HT1AR): negligible
% Stimulation (agonist effect) of control agonist response, 5-HT1A (h) (h5-HT1AR): −0.30 ± 0.28%
inhibition at 100 µM (h5-HT1AR): 4.25%
% Inhibition (antagonist effect) of control agonist response, NK1 (h) (hNK1R): negligible
% Stimulation (agonist effect) of control agonist response, NK1 (h) (hNK1R): −1.40 ± 0.42%
inhibition at 100 µM (hNK1R): 3.9%
% Inhibition (antagonist effect) of control agonist response, V1A (h) (hV1AR; [2]): negligible
% Stimulation (agonist effect) of control agonist response, V1A (h) (hV1AR; 100 µM test compound): −4.40 ± 1.41%
inhibition at 100 µM (hV1AR; [3]): -13.6%

O=C1c2cccc(O)c2C(=O)c2c(O)cc(CO)cc21 [aloe-emodin]
Activity on vasopressin receptors (vasopressin receptors): remained inactive
Activity on dopamine receptors (dopamine receptors): remained inactive

Cc1cc(O)c2c(c1)C(=O)c1cc(O)cc(O)c1C2=O [emodin]
Activity on vasopressin receptors (vasopressin receptors): showed activity
Activity on dopamine receptors (dopamine receptors): showed activity

COc1c(O[C@@H]2O[C@H](CO)[C@@H](O)[C@H](O)[C@H]2O)cc2c(c1O)C(=O)c1c(cc(C)c(O)c1OC)C2=O [gluco-aurantio-obtusin]
IC50 [1]: 30.24 ± 0.2 µM

COc1cc(O)cc2c1C(=O)c1c(O)cc(C)cc1C2=O [questin]
Activity on vasopressin receptors (vasopressin receptors): remained inactive
Activity on dopamine receptors (dopamine receptors): remained inactive
